This note sets out measurements from the supplement of paper PMC10307832.

Holding throughout (test): relative viability (nuclei count vs DMSO), 5 days (fraction); higher = more cells survive
Compound in assay [1]: CCn1c(-c2nonc2N)nc2c(C#CC(C)(C)O)ncc(OC[C@H]3CCCNC3)c21 + N=C(N)NC(=N)NCCc1ccccc1 [Phenformin] (partner 250 µM)
Put shortly:
(§1)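 For relative viability, nuclei counts in treated wells were divided by those in vehicle wells. Lung cancer cell lines had been pin-tool dosed in 1536-well plates the day after seeding and cultured for 5 days, then fixed and stained in one step (final 0.05% Triton X-100, 1% formaldehyde, 1 ug/ml Hoechst) and imaged at 4×. Doses were one drug alone or a fixed anchor-drug dose plus five library-drug doses (not always all listed) in √10 steps, and values are duplicate-plate medians.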

Compound in the assay “BAM7 + Trametinib”: CCOC1=CC=CC=C1N=NC2=C(NN(C2=O)C3=NC(=CS3)C4=CC=CC=C4)C [BAM7] + CC(=O)Nc1cccc(-n2c(=O)n(C3CC3)c(=O)c3c(Nc4ccc(I)cc4F)n(C)c(=O)c(C)c32)c1 [Trametinib] (partner 0.02 µM)
Put shortly: as §1

Compound in the assay “BAM7 + Olaparib”: CCOC1=CC=CC=C1N=NC2=C(NN(C2=O)C3=NC(=CS3)C4=CC=CC=C4)C [BAM7] + O=C(c1cc(Cc2n[nH]c(=O)c3ccccc23)ccc1F)N1CCN(C(=O)C2CC2)CC1 [Olaparib] (partner 8 µM)
The procedure, abridged:
as §1

Compound in the assay “BAM7 + Linsitinib”: CCOC1=CC=CC=C1N=NC2=C(NN(C2=O)C3=NC(=CS3)C4=CC=CC=C4)C [BAM7] + C[C@]1(O)C[C@@H](c2nc(-c3ccc4ccc(-c5ccccc5)nc4c3)c3c(N)nccn32)C1 [Linsitinib] (partner 1 µM)
The procedure, abridged:
as §1

In the case of UMC-11, the relative viability stood at 0.35 in assay [1] (first compound 0.01 µM); 0.351 in assay [1] (first compound 0.03162 µM); 0.31 in assay [1] (first compound 0.1 µM); 0.32 in assay [1] (first compound 0.3162 µM); 0.301 in assay [1] (first compound 1 µM); 0.694 in the assay with BAM7 + Trametinib (first compound 0.5 µM). The relative viability is 0.83 in the assay with BAM7 + Trametinib (first compound 5 µM); 0.728 in the assay with BAM7 + Trametinib (first compound 15.81 µM); 0.71 in the assay with BAM7 + Trametinib (first compound 50 µM); 0.305 in the assay with BAM7 + Olaparib (first compound 0.5 µM); 0.388 with BAM7 + Olaparib (first compound 5 µM); 0.462 with BAM7 + Olaparib (first compound 15.81 µM). Besides, the relative viability in the assay with BAM7 + Olaparib (first compound 50 µM) stood at 0.377; with BAM7 + Linsitinib (first compound 0.5 µM), 1.12; with BAM7 + Linsitinib (first compound 5 µM), 1.05; with BAM7 + Linsitinib (first compound 15.81 µM), 1.07; in the assay with BAM7 + Linsitinib (first compound 50 µM), 1.09.
